Values quoted from earlier work in article PMC11211886 (Frontiers in Pharmacology, 2024).
Read-outs that look alike come from different tables or passages of the source.

Legend:
[1] = tested on: P-gp; parameters: method as in FDA, 2014; FDA, 2017; FDA, 2018; FDA, 2021; conditions: ref FDA, 2014, 2017, 2018, 2021; cited from earlier work
[2] = cited from earlier work; for incidence of ≥Grade 3 GI toxicity, including diarrhea and colitis: clinical trials, ref FDA, 2014, FDA, 2017, 2018, 2021
[3] = ref FDA, cited from earlier work

| Compound | P-gp substrate status [1] | incidence of ≥Grade 3 GI toxicity, including diarrhea and colitis [2] | diarrhea (TEAE) incidence ([2]; patients with indolent and aggressive lymphoma, phase II, ref Dreyling et al., 2017) [%] | exposure in the intestines versus plasma [3]; 2018 [fold] | exposure in the intestines versus plasma [3]; 2014 [fold] | diarrhea, any-grade adverse event ([2]; ref Wang et al., 2023) [%] | diarrhea, grade ≥3 AE ([2]; ref Wang et al., 2023) [%] | exposure in the intestines versus plasma [3]; 2017 [fold] |
| --- | --- | --- | --- | --- | --- | --- | --- | --- |
| COc1c(OCCCN2CCOCC2)ccc2c1N=C(NC(=O)c1cnc(N)nc1)N1CCN=C21 [copanlisib, Copanlisib] | P-gp substrates | higher than 10% | 40.5 | 190 |  |  |  |  |
| CC[C@H](Nc1ncnc2[nH]cnc12)c1nc2cccc(F)c2c(=O)n1-c1ccccc1 [idelalisib, Idelalisib] | P-gp substrates | higher than 10% |  |  | 50 |  |  |  |
| C[C@H](Nc1ncnc2[nH]cnc12)c1cc2cccc(Cl)c2c(=O)n1-c1ccccc1 [duvelisib, Duvelisib] | P-gp substrates | higher than 10% |  |  |  | 47 | 12 | 100 |
